Data taken from patent US11702422B2, “Imidazopyridazines as modulators of IL-17” (Janssen Pharmaceutica NV, priority 2020, dated 2023).
Where a name gives a salt, the structure may show the parent alone.

Tests used:
[1] = target: IL-17A(FLAG-Tagged): IL-17RA(His-Tagged) (Homo sapiens, UniProt Q16552, K93Q); assay: IL-17A(FLAG-Tagged): IL-17RA(His-Tagged) Binding Disruption Eu-HTRF Assay; details: IL-17A/IL-17RA binding disruption, simple average if tested more than once
In short: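 IC50 comes from a one-site competition fit of the HTRF 665/620 nm ratio. Compound dilutions (2-fold, 22 points) were held 1 h rt with FLAG-tagged IL-17A dimer, then His-tagged IL-17RA plus Eu-cryptate anti-FLAG and D2 anti-His antibodies were added for 2 h rt.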

[2] = system: IL-17A-induced G-CSF production in human normal keratinocyte (NHK); assay: NHK Assay: IL-17A-induced G-CSF production in human normal keratinocytes; assay type: cell-based; details: 24 h, adult normal human keratinocytes, IL-17A 5 ng/mL, simple average if tested more than once
In short: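 HTRF read-out of supernatant G-CSF, quantified from a standard curve, gave IC50 values. Adult keratinocytes, 3000-4000 cells/well, received human IL-17A (5 ng/mL final) pre-mixed 1 h at rt with compound, in 5% FBS and 0.2% DMSO, 24 h at 37° C.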

Sequence of UniProt Q16552 (Q16552 with tags, fused parts or gaps K93Q): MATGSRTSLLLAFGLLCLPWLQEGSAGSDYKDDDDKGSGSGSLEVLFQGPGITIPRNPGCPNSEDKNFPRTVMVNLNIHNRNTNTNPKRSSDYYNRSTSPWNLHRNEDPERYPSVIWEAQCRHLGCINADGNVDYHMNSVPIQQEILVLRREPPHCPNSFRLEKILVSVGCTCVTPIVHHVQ

SMILES	IC50 [1] [µM]	IC50 ([2]; Homo sapiens, Keratinocyte) [µM]	IC50 [2] [µM]
O=C(CCC(F)(F)F)N[C@@H](c1cnn2cc([C@@H](NC(=O)c3ccnc(OCC(F)F)c3)C3CCC(F)(F)CC3)nc2c1)C1CC1 [Example 179, N—((S)-(7-((R)-Cyclopropyl(4,4,4-trifluorobutanamido)methyl)imidazo[1,2-b]pyridazin-2-yl)(4,4-difluorocyclohexyl)methyl)-2-(2,2-difluoroethoxy)isonicotinamide]	0.045	0.45	
O=C(CC1(C(F)(F)F)CC1)N[C@@H](c1cnn2cc([C@@H](NC(=O)c3nonc3C3CC3)C3CCC(F)(F)CC3)nc2c1)C1CC1 [Example 297, 4-Cyclopropyl-N—((S)-(7-((R)-cyclopropyl(2-(1-(trifluoromethyl)cyclopropyl)acetamido)methyl)imidazo[1,2-b]pyridazin-2-yl)(4,4-difluorocyclohexyl)methyl)-1,2,5-oxadiazole-3-carboxamide]	0.031	0.087	
Cc1cc(C(=O)N[C@H](c2cn3ncc([C@H](NC(=O)CCC(F)(F)F)C4CC4)cc3n2)C2CCC(F)(F)CC2)cnn1 [Example 418, N—((S)-(7-((R)-Cyclopropyl(4,4,4-trifluorobutanamido)methyl)imidazo[1,2-b]pyridazin-2-yl)(4,4-difluorocyclohexyl)methyl)-6-methylpyridazine-4-carboxamide]	4.6	> 20	
O=C(CCC(F)(F)F)N[C@@H](c1cnn2cc([C@@H](NC(=O)c3cc(OCC(F)F)ccn3)C3CCC(F)(F)CC3)nc2c1)C1CC1 [Example 197, N—((S)-(7-((R)-Cyclopropyl(4,4,4-trifluorobutanamido)methyl)imidazo[1,2-b]pyridazin-2-yl)(4,4-difluorocyclohexyl)methyl)-4-(2,2-difluoroethoxy)picolinamide]	0.3	1.7	
Cc1nonc1C(=O)N[C@H](c1cn2ncc([C@H](NC(=O)CO[C@H](C)C(F)(F)F)C3CC3)cc2n1)C1CCC(F)(F)CC1 [Example 357, N—((S)-(7-((R)-Cyclopropyl(2-(((R)-1,1,1-trifluoropropan-2-yl)oxy)acetamido)methyl)imidazo[1,2-b]pyridazin-2-yl)(4,4-difluorocyclohexyl)methyl)-4-methyl-1,2,5-oxadiazole-3-carboxamide]	0.95	2.5	
O=C(CCC(F)(F)F)N[C@@H](c1cnn2cc([C@@H](NC(=O)[C@H]3C[C@@H]3CF)C3CCC(F)(F)CC3)nc2c1)C1CC1 (relative stereo) [Example 363, (1S*,2S*)—N—((S)-(7-((R*)-Cyclopropyl(4,4,4-trifluorobutanamido)methyl)imidazo[1,2-b]pyridazin-2-yl)(4,4-difluorocyclohexyl)methyl)-2-(fluoromethyl)cyclopropane-1-carboxamide]	0.64	1.1	
O=C(CC1CC(F)(F)C1)NC(c1cnn2cc([C@@H](NC(=O)c3cnn(CCC(F)(F)F)c3)C3CCC(F)(F)CC3)nc2c1)C1CC1 (single isomer, unassigned) [Example 8, N—((S)-(7-((R*)-Cyclopropyl(2-(3,3-difluorocyclobutyl)acetamido)methyl)imidazo[1,2-b]pyridazin-2-yl)(4,4-difluorocyclohexyl)methyl)-1-(3,3,3-trifluoropropyl)-1H-pyrazole-4-carboxamide]	0.22		0.36
CC(O)c1nonc1C(=O)N[C@H](c1cn2ncc([C@H](NC(=O)CC3CC(F)(F)C3)C3CC3)cc2n1)C1CCC(F)(F)CC1 (single isomer, unassigned) [Example 395, N—((S)-(7-((R)-Cyclopropyl(2-(3,3-difluorocyclobutyl)acetamido)methyl)imidazo[1,2-b]pyridazin-2-yl)(4,4-difluorocyclohexyl)methyl)-4-((R*)-1-hydroxyethyl)-1,2,5-oxadiazole-3-carboxamide]	0.048	0.17	
COCC(NC(=O)CC1CC(F)(F)C1)c1cnn2cc([C@H](COC(C)(C)C(F)(F)F)NC(=O)c3ccnn3C(C)C)nc2c1 (single isomer, unassigned) [Example 539, N—((R)-1-(7-((S*)-1-(2-(3,3-Difluorocyclobutyl)acetamido)-2-methoxyethyl)imidazo[1,2-b]pyridazin-2-yl)-2-((1,1,1-trifluoro-2-methylpropan-2-yl)oxy)ethyl)-1-isopropyl-1H-pyrazole-5-carboxamide]	0.13	0.078	
Cc1nonc1C(=O)N[C@H](c1cn2ncc([C@H](NC(=O)CC(C)C(F)F)C3CC3)cc2n1)C1CCC(F)(F)CC1 (single isomer, unassigned) [Example 265, N—((S)-(7-((R)-Cyclopropyl((S*)-4,4-difluoro-3-methylbutanamido)methyl)imidazo[1,2-b]pyridazin-2-yl)(4,4-difluorocyclohexyl)methyl)-4-methyl-1,2,5-oxadiazole-3-carboxamide]	0.21		1.1
O=C(CCC(F)(F)F)N[C@@H](c1cnn2cc([C@@H](NC(=O)c3cnnn3CC3CC3(F)F)C3CCC(F)(F)CC3)nc2c1)C1CC1 (stereo partly drawn) [Example 92, N—((S)-(7-((R)-Cyclopropyl(4,4,4-trifluorobutanamido)methyl)imidazo[1,2-b]pyridazin-2-yl)(4,4-difluorocyclohexyl)methyl)-1-((2,2-difluorocyclopropyl)methyl)-1H-1,2,3-triazole-5-carboxamide]	0.11	0.14	
CC(C)c1oncc1C(=O)N[C@H](c1cn2ncc([C@H](NC(=O)CCC(F)(F)F)C3CC3)cc2n1)C1CCC(F)(F)CC1 [Example 89, N—((S)-(7-((R)-Cyclopropyl(4,4,4-trifluorobutanamido)methyl)imidazo[1,2-b]pyridazin-2-yl)(4,4-difluorocyclohexyl)methyl)-5-isopropylisoxazole-4-carboxamide]	0.043		0.065
O=C(CCC(F)(F)F)N[C@@H](c1cnn2cc([C@@H](NC(=O)c3ccnc(C(F)(F)F)c3)C3CCC(F)(F)CC3)nc2c1)C1CC1 [Example 194, N—((S)-(7-((R)-Cyclopropyl(4,4,4-trifluorobutanamido)methyl)imidazo[1,2-b]pyridazin-2-yl)(4,4-difluorocyclohexyl)methyl)-2-(trifluoromethyl)isonicotinamide]	0.14	1.6	
COCC(NC(=O)CC1CC(F)(F)C1)c1cnn2cc([C@@H](NC(=O)c3nonc3C3CC3)C3CCC(F)(F)CC3)nc2c1 (single isomer, unassigned) [Example 525, 4-Cyclopropyl-N—((S)-(7-((R*)-1-(2-(3,3-difluorocyclobutyl)acetamido)-2-methoxyethyl)imidazo[1,2-b]pyridazin-2-yl)(4,4-difluorocyclohexyl)methyl)-1,2,5-oxadiazole-3-carboxamide]	0.059		0.042
O=C(CC1CC(F)(F)C1)N[C@@H](c1cnn2cc([C@@H](NC(=O)c3conc3C3CC3)C3CCC(F)(F)CC3)nc2c1)C1CC1 [Example 125, 3-Cyclopropyl-N—((S)-(7-((R)-cyclopropyl(2-(3,3-difluorocyclobutyl)acetamido)methyl)imidazo[1,2-b]pyridazin-2-yl)(4,4-difluorocyclohexyl)methyl)isoxazole-4-carboxamide]	0.037	0.078	
CC(C)n1nccc1C(=O)N[C@H](c1cn2ncc([C@H](NC(=O)CCC(C)(F)F)C3CC3)cc2n1)C1CCC(F)(F)CC1 [Example 260, N—((S)-(7-((R)-Cyclopropyl(4,4-difluoropentanamido)methyl)imidazo[1,2-b]pyridazin-2-yl)(4,4-difluorocyclohexyl)methyl)-1-isopropyl-1H-pyrazole-5-carboxamide]	0.12	0.18	
CC(C)n1nccc1C(=O)N[C@H](c1cn2ncc([C@H](NC(=O)C[C@H]3C[C@@H](F)C3)C3CC3)cc2n1)C1CCC(F)(F)CC1 (single isomer, unassigned) [Example 257]	0.11	0.12	
O=C(CCC(F)(F)F)NC(c1cnn2cc(C(NC(=O)c3ncnn3CC3CC3(F)F)C3CCC(F)(F)CC3)nc2c1)C1CC1 [Example 475, N—((R)-(7-((S)-Cyclopropyl(4,4,4-trifluorobutanamido)methyl)imidazo[1,2-b]pyridazin-2-yl)(4,4-difluorocyclohexyl)methyl)-1-((2,2-difluorocyclopropyl)methyl)-1H-1,2,4-triazole-5-carboxamide]	0.13	0.33	
O=C(N[C@H](c1cn2ncc(CNC(=O)[C@H]3NCCC[C@@H]3C(F)(F)F)cc2n1)C1CCCCC1)c1ccccc1 (relative stereo) [Example 2, (Trans-2S*,3S*)—N-((2-((S)-benzamido(cyclohexyl)methyl)imidazo[1,2-b]pyridazin-7-yl)methyl)-3-(trifluoromethyl)piperidine-2-carboxamide hydrochloride]	7.6	> 20	
Cc1c(C(=O)N[C@H](c2cn3ncc(C(NC(=O)CCC(F)(F)F)C4CC4)cc3n2)C2CCC(F)(F)CC2)cnn1CCC(F)(F)F (single isomer, unassigned) [Example 54, N—((S)-(7-((R*)-Cyclopropyl(4,4,4-trifluorobutanamido)methyl)imidazo[1,2-b]pyridazin-2-yl)(4,4-difluorocyclohexyl)methyl)-5-methyl-1-(3,3,3-trifluoropropyl)-1H-pyrazole-4-carboxamide]	0.32		0.71
